Earlier results in patent US20030175329A1, “Semisolid topical hormonal compositions and methods for treatment” (Cellegy Pharmaceuticals, Inc., priority 2001, published 2003).

Columns and labels:
hypogonadal males = conditions: oral doses for at least 60 days; 23 hypogonadal males
healthy males = conditions: 200 mg IM weekly
[1] = 6 months

## CCCCCCCCCCC(=O)O[C@H]1CC[C@H]2[C@@H]3CCC4=CC(=O)CC[C@]4(C)[C@H]3CC[C@]12C [testosterone undecanoate]
Hypogonadal males
  men with measurable improvement in sexual attitudes and performance: 61%

## CCCCCCC(=O)O[C@H]1CC[C@H]2[C@@H]3CCC4=CC(=O)CC[C@]4(C)[C@H]3CC[C@]12C [testosterone enanthate]
Healthy males
  decrease of high-density lipoprotein cholesterol: 14-18%
[1]
  serum BT levels maintained within the normal range throughout the dosing interval: 39%
  serum DHT levels maintained within the normal range throughout the dosing interval: 70%
  serum E2 levels maintained within the normal range throughout the dosing interval: 35%
  serum T levels maintained within the normal range throughout the dosing interval: 72%

## C[C@]12CC[C@H]3[C@@H](CCC4=CC(=O)CC[C@@]43C)[C@@H]1CC[C@@H]2O [Testosterone, testosterone]
Following IM injection
  dose excreted in urine as glucuronide and sulfate conjugates of testosterone and its metabolites: about 90%
In vivo
  excreted mostly unconjugated in the feces: About 6%
